Results from patent US7700611B2, “Synthesis and crystalline forms of NPY5 antagonist” (Merck Sharp & Dohme Corp., priority 2005, dated 2010).

Assay: Thermodynamic stability of crystalline polymorphs (enantiotropic transition, storage)
Assay type: physicochemical
Conditions: for enantiotropic transition temperature between Form A and Form C: free base polymorphs; for thermodynamic stability of the crystalline form: relative to other crystalline forms of Compound I, temperature range as stated; for solid form stability at room temperature / on storage: room temperature (22° C.)

| Structure (SMILES) | enantiotropic transition temperature between Form A and Form C | thermodynamic stability of the crystalline form | solid form stability at room temperature / on storage |
| --- | --- | --- | --- |
| O=C1O[C@]2(CC[C@H](C(=O)Nc3ccn(-c4ccccc4F)n3)CC2)c2cnccc21 [Form A, trans-N-[1-(2-fluorophenyl)-3-pyrazolyl]-3-oxospiro[6-azaisobenzofuran-1(3H),1′-cyclohexane]-4′-carboxamide] | approximately 81 °C | most thermodynamically stable crystalline form of compound (I) above 81 °C | instability |
| O=C1O[C@]2(CC[C@H](C(=O)Nc3ccn(-c4ccccc4F)n3)CC2)c2cnccc21 [Form C, trans-N-[1-(2-fluorophenyl)-3-pyrazolyl]-3-oxosiro[6-azaisobenzofuran-1(3H),1′-cyclohexane]-4′-carboxamide] | approximately 81 °C | most thermodynamically stable crystalline form of Compound I below 81 °C | not subject to transforming to another crystal form |
